Assays:
[1] = system: NADH kinase (the present enzyme); assay: Inhibition, activation and stabilization of the present enzyme; format: biochemical, Pichia membranaefaciens
[2] = system: NADH kinase (the present enzyme); assay: Substrate specificity of the present enzyme (NADH vs NAD+); format: biochemical, Pichia membranaefaciens; details: for Specificity (relative activity, NADH = 100): Table 3, present enzyme; for Relative activity (%): substrate NADH or NAD+, ATP, pH 8.5, 30° C., 20 minutes, percentage based on NADH
Description: The substrate specificity of the present enzyme was examined under the following reaction conditions. […]
To 0.9 ml of each of the above substrate solutions containing NADH or NAD^+ was added 0.1 ml of 23 U/ml of the present enzyme, and the reaction was carried out at 30° C. for 20 minutes. Then, the reaction was terminated by heat treatment at 100° C. for 2 minutes, and the denatured protein was removed, after which the amount of NADPH or NADP^+ produced by the reaction of the corresponding substrate was measured as follows. As a control solution, there was used a mixture of each substrate solution and the present enzyme in which the reaction had been terminated immediately after mixing them.
With 1 ml of each of the reaction solutions obtained in the above was mixed 1 ml of a color-producing solution consisting of 10 mM G-6-P, 50 mM HEPPS buffer (pH 8.0), 10 mM magnesium chloride, 0.1% bovine serum albumin, 2.5 IU/ml G-6-P dehydrogenase (NADP^+ -dependent), 5 IU/ml diaphorase and 250 μM 2,6-dichlorophenolindophenol. The resulting mixture was immediately introduced into a constant-temperature cuvette of STASAR III spectrophotometer of Gilford and subjected to reaction at 30° C. Simultaneously with the reaction, the change of absorbance at 600 nm was measured with the lapse of time, and the difference (ΔOD600 nm /min) between absorbance values 1 minute and 2 minutes after the initiation of the coloration reaction was taken as a measured value. As to relative activity (%), a measured value (ΔOD600 nm /min) obtained by using NAD^+ as a substrate was shown as a percentage based on a measured value (ΔOD600 nm /min) obtained by using NADH as a substrate.

NADH kinase A = details: Table 3, NADH kinase A; cited from earlier work
NADH kinase B = details: Table 3, NADH kinase B; cited from earlier work

For [Mg+2] [Mg^2+], the “Stabilization of the present enzyme” value [1] was “stabilized”.

With [Cu+2] [Cu^2+] the “Inhibition of the present enzyme” value [1] was “strongly inhibited”.

In the case of N.N.O=S(=O)(O)O [ammonium sulfate], the “Stabilization of the present enzyme” value [1] was “stabilized”.

With [Hg+2] [Hg^2+] the “Inhibition of the present enzyme” value [1] was “strongly inhibited”.

For CC(=O)O [sodium acetate], the “Activation of the present enzyme” value [1] was “activated”.

With [Mn+2] [Mn^2+] the “Stabilization of the present enzyme” value [1] was “stabilized”.

For NC(=O)c1ccc[n+]([C@@H]2O[C@H](COP(=O)([O-])OP(=O)(O)OC[C@H]3O[C@@H](n4cnc5c(N)ncnc54)[C@H](O)[C@@H]3O)[C@@H](O)[C@H]2O)c1 [NAD^+], the “Action of the present enzyme on the substrate” value [2] was “hardly acts”, the “Specificity (relative activity, NADH = 100)” value [2] was 0.9 and the “Relative activity (%)” value [2] was 0.9%. For the same molecule, the “Specificity (relative activity, NADH = 100)” value (NADH kinase A) was 1.7 and the “Specificity (relative activity, NADH = 100)” value (NADH kinase B) was 1.6.

In the case of [Zn+2] [Zn^2+], the “Inhibition of the present enzyme” value [1] was “strongly inhibited”.

For O=C(O)c1cc[c]([Hg][Cl])cc1 [p-CMB, p-chloromercuribenzoic acid, reference compound], the “Inhibition of the present enzyme” value [1] was “strongly inhibited”.

For CCCCCCCCCCCCOS(=O)(=O)[O-].[Na+] [SDS, sodium lauryl sulfate, reference compound], the “Inhibition of the present enzyme” value [1] was “strongly inhibited”.

With NC(=O)C1=CN([C@@H]2O[C@H](COP(=O)(O)OP(=O)(O)OC[C@H]3O[C@@H](n4cnc5c(N)ncnc54)[C@H](O)[C@@H]3O)[C@@H](O)[C@H]2O)C=CC1 [NADH] the “Action of the present enzyme on the substrate” value [2] was “very specific”, the “Specificity (relative activity, NADH = 100)” value [2] was 100 and the “Relative activity (%)” value [2] was 100%. For the same molecule, the “Specificity (relative activity, NADH = 100)” value (NADH kinase A) was 100 and the “Specificity (relative activity, NADH = 100)” value (NADH kinase B) was 100.

With OC[C@H]1O[C@@](CO)(O[C@H]2O[C@H](CO)[C@@H](O)[C@H](O)[C@H]2O)[C@@H](O)[C@@H]1O [saccharose] the “Stabilization of the present enzyme” value [1] was “stabilized”.

With [Cd+2] [Cd^2+] the “Inhibition of the present enzyme” value [1] was “strongly inhibited”.

In the case of [Pb+2] [Pb^2+], the “Inhibition of the present enzyme” value [1] was “strongly inhibited”.
